What was measured:
GSK3β = GSK3β (Homo sapiens, UniProt P49841); assay: Kinase assay, radioactive phosphate incorporation, GSK3β; assay type: biochemical; conditions: 100 μM ATP, 30° C.; read-out: Kinase inhibition IC50 GSK3β
Outline: (§1)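 Inhibition is measured as reduced transfer of radioactive phosphate to a polypeptide substrate by 2-4 μg of recombinant enzyme. Mixtures with Mg/ATP (100 μM ATP, 15 mM MgCl2, [γ-32P]-ATP) in pH 7.4 MOPS-based buffer incubate at 30° C, are stopped on ice, filtered and counted.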

CDK9/cyclin T1 = CDK9/cyclin T1 (Homo sapiens, UniProt P50750); assay: Kinase assay, radioactive phosphate incorporation, CDK9/cyclin T1; assay type: biochemical; conditions: 100 μM ATP, 30° C.; read-out: Kinase inhibition IC50 CDK9/cyclin T1
Outline: as §1

CDK2/cyclin E = CDK2/cyclin E (Homo sapiens, UniProt P24941); assay: Kinase assay, radioactive phosphate incorporation, CDK2/cyclin E; assay type: biochemical; conditions: 100 μM ATP, 30° C.; read-out: Kinase inhibition IC50 CDK2/cyclin E
Outline: as §1

HT29 = assay: 72-h MTT cytotoxicity assay, HT29; assay type: cell-based; conditions: Homo sapiens, HT-29, read-out: 72-h MTT IC50 HT29, HT29 cell line
Outline: (§2)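 Standard proliferation test: 72 h compound exposure at 37° C in triplicate, followed by MTT staining and DMSO solubilisation.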

CDK4/cyclin D1 = CDK4/cyclin D1 (Homo sapiens, UniProt P11802); assay: Kinase assay, radioactive phosphate incorporation, CDK4/cyclin D1; assay type: biochemical; conditions: 100 μM ATP, 30° C.; read-out: Kinase inhibition IC50 CDK4/cyclin D1
Outline: as §1

[1] = test system: transformed human cell lines (A549, HT29, Saos-2); assay: 72-h MTT cytotoxicity assay, average of cell lines; assay type: cell-based; conditions: read-out: 72-h MTT IC50 Average, average of A549, HT29, Saos-2
Outline: as §2

CDK2/cyclin A = CDK2/cyclin A (Homo sapiens, UniProt P24941); assay: Kinase assay, radioactive phosphate incorporation, CDK2/cyclin A; assay type: biochemical; conditions: 100 μM ATP, 30° C.; read-out: Kinase inhibition IC50 CDK2/cyclin A
Outline: as §1

Aurora-A = molecular target: T1, Aurora-A (Homo sapiens, UniProt O14965); assay: Kinase assay, radioactive phosphate incorporation, Aurora-A; assay type: biochemical; conditions: 100 μM ATP, 30° C.; read-out: Kinase inhibition IC50 Aurora-A
T1 sequence (O14965 1-403): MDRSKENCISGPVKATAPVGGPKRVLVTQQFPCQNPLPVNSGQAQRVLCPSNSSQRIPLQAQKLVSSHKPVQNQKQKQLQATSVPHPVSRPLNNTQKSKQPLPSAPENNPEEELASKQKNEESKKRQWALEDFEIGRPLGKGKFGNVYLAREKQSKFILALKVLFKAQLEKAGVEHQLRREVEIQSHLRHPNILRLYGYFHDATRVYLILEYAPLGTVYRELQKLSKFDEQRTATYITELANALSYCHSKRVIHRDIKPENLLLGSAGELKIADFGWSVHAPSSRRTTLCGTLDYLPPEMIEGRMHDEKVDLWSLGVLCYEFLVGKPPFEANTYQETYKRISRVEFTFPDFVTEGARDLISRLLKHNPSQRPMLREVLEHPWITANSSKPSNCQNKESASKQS
Protocol: (§3) The compounds from the examples above were investigated for their ability to inhibit the enzymatic activity of various protein kinases. This was achieved by measurement of incorporation of radioactive phosphate from ATP into appropriate polypeptide substrates. Recombinant protein kinases and kinase complexes were produced or obtained commercially. Assays were performed using 96-well plates and appropriate assay buffers (typically 25 mM β-glycerophosphate, 20 mM MOPS, 5 MM EGTA, 1 mM DTT, 1 mM Na3VO3, pH 7.4), into which were added 2-4 μg of active enzyme with appropriate substrates. The reactions were initiated by addition of Mg/ATP mix (15 mM MgCl2+100 μM ATP with 30-50 kBq per well of [γ-^32P]-ATP) and mixtures incubated as required at 30° C. Reactions were stopped on ice, followed by filtration through p81 filterplates or GF/C filterplates (Whatman Polyfiltronics, Kent, UK). After washing 3 times with 75 mM aq orthophosphoric acid, plates were dried, scintillant added and incorporated radioactivity measured in a scintillation counter (TopCount, Packard Instruments, Pangbourne, Berks, UK). Compounds for kinase assay were made up as 10 mM stocks in DMSO and diluted into 10% DMSO in assay buffer.

A549 = assay: 72-h MTT cytotoxicity assay, A549; assay type: cell-based; conditions: Homo sapiens, read-out: 72-h MTT IC50 A549, A549 cell line
Outline: as §2

Saos-2 = assay: 72-h MTT cytotoxicity assay, Saos-2; assay type: cell-based; conditions: Homo sapiens, read-out: 72-h MTT IC50 Saos-2, Saos-2 cell line
Outline: as §2

CDK7/cyclin H = CDK7/cyclin H (Homo sapiens, UniProt P50613); assay: Kinase assay, radioactive phosphate incorporation, CDK7/cyclin H; assay type: biochemical; conditions: 100 μM ATP, 30° C.; read-out: Kinase inhibition IC50 CDK7/cyclin H
Outline: as §1

CDK1/cyclin B = CDK1/cyclin B (Homo sapiens, UniProt P06493); assay: Kinase assay, radioactive phosphate incorporation, CDK1/cyclin B; assay type: biochemical; conditions: 100 μM ATP, 30° C.; read-out: Kinase inhibition IC50 CDK1/cyclin B
Protocol: as §3

CDK4/cyclin D1, sequence (P11802 whole entry, species assumed): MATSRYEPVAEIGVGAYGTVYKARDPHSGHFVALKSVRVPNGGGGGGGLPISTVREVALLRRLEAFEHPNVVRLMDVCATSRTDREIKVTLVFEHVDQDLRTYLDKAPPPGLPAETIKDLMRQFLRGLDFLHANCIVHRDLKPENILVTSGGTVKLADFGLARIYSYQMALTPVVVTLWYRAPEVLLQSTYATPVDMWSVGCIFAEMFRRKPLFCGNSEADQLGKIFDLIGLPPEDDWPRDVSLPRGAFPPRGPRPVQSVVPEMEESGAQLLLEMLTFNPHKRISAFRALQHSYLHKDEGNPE
CDK4/cyclin D1, sequence (P24385 whole entry partner, species assumed): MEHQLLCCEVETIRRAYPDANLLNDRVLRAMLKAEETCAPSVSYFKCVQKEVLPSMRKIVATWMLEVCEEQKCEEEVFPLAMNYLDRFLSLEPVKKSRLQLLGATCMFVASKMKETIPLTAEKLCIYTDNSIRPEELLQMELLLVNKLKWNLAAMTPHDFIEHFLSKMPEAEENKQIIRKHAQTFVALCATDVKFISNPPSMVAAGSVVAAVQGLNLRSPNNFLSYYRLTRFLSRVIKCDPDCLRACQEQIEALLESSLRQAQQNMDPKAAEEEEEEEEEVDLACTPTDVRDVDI
CDK7/cyclin H, sequence (P50613 whole entry, species assumed): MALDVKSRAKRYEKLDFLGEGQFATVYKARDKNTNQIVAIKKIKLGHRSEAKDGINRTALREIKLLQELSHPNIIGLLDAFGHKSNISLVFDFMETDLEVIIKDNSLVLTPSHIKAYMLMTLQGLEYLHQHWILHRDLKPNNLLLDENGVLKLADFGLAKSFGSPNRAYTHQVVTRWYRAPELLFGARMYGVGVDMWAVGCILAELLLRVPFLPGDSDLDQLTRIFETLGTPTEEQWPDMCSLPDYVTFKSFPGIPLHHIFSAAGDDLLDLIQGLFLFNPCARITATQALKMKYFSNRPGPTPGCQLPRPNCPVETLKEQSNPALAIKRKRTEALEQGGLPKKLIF
CDK7/cyclin H, sequence (P51946 whole entry partner, species assumed): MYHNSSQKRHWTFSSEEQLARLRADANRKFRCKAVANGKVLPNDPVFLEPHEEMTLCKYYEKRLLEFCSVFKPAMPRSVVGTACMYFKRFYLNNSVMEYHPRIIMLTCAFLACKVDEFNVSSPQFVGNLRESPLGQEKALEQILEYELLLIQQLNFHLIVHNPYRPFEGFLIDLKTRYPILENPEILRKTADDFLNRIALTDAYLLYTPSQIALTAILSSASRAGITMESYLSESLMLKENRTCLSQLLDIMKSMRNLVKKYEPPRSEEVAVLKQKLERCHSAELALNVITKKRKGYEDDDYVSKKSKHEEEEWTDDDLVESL
CDK9/cyclin T1, sequence (P50750 whole entry, species assumed): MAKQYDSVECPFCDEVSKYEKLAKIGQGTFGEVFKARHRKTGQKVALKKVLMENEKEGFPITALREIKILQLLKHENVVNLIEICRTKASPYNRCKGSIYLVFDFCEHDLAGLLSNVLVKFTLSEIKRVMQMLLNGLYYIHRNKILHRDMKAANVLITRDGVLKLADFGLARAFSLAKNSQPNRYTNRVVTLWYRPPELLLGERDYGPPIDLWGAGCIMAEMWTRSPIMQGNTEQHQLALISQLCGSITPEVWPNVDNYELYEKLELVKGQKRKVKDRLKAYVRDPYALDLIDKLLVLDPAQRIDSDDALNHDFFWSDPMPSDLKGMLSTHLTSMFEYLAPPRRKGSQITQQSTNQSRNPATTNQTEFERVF
CDK9/cyclin T1, sequence (O60563 whole entry partner, species assumed): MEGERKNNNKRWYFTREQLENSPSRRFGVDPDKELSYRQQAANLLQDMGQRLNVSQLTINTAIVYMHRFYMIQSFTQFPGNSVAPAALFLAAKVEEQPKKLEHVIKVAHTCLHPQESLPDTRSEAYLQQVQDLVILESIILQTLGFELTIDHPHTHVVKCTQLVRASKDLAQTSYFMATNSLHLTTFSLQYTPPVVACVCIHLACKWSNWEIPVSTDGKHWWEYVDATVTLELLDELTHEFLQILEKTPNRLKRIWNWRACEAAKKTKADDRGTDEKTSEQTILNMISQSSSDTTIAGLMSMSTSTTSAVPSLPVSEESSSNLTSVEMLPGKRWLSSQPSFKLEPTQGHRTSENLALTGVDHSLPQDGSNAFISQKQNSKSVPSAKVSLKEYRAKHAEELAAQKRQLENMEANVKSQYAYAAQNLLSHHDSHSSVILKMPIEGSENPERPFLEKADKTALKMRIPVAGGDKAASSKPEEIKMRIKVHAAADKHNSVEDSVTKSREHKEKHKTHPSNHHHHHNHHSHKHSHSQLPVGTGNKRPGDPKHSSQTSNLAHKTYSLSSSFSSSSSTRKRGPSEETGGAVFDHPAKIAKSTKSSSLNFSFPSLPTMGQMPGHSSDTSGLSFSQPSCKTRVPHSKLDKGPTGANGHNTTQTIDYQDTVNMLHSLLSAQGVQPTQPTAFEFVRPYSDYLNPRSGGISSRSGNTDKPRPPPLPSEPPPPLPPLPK
CDK1/cyclin B, sequence (P06493 whole entry, species assumed): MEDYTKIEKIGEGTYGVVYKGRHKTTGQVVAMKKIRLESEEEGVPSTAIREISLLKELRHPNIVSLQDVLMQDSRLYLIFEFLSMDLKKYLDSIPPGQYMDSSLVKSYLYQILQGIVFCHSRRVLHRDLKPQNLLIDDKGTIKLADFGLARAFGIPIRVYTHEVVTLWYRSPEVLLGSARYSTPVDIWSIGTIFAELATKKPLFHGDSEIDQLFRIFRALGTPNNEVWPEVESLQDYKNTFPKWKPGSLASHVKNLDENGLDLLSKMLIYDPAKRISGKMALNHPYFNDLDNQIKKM
CDK1/cyclin B, sequence (P14635 whole entry partner, species assumed): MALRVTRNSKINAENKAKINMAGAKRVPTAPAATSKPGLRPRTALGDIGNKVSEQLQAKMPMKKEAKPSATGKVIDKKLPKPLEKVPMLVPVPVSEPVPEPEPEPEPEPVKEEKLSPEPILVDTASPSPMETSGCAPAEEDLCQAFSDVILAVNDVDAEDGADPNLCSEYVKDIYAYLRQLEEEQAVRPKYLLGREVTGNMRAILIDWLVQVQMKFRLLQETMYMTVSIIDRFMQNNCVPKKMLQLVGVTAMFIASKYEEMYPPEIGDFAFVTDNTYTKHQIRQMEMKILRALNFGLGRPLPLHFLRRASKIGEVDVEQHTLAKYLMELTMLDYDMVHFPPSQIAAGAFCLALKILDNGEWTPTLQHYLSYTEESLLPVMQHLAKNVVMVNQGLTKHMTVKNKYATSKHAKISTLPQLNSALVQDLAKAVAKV
GSK3β, sequence (P49841 whole entry, species assumed): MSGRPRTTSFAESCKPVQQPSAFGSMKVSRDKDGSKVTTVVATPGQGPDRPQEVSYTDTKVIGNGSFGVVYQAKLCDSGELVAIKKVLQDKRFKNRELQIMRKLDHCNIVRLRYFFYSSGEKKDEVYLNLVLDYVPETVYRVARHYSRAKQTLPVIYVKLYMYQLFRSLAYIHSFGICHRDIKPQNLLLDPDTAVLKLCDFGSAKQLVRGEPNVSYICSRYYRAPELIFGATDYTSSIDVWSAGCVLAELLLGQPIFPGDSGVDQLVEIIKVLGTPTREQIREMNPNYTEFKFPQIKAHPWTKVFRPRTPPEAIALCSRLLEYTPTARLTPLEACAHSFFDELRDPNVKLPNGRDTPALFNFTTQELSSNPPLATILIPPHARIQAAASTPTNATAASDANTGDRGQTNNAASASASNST

IC50 (GSK3β) [nM]	IC50 (CDK9/cyclin T1) [nM]	IC50 (CDK2/cyclin E) [nM]	IC50 (CDK4/cyclin D1) [nM]	IC50 (CDK2/cyclin A) [nM]	IC50 (Aurora-A) [nM]	IC50 (CDK7/cyclin H) [nM]	IC50 (CDK1/cyclin B) [nM]	SMILES	IC50 (HT29) [nM]	IC50 [1] [nM]	IC50 (A549) [nM]	IC50 (Saos-2) [nM]
100	2	170	1400	480	30	130		CCN(Cc1cccc(-c2ccnc(Nc3cccc([N+](=O)[O-])c3)n2)c1)C(C)C [Compound 46, (4-{3-[(Ethyl-isopropyl-amino)-methyl]-phenyl}-pyrimidin-2-yl)-(3-nitro-phenyl)-amine]	530	900 ± 300	960	1100
30		120	280	150	40	1700	150	OCc1cccc(Nc2nccc(-c3cccc(O)c3)n2)c1 [Compound 72, 3-[2-(3-Hydroxymethyl-phenylamino)-pyrimidin-4-yl]-phenol]				
10	< 1	10	10	< 1	50	120	1	COc1ccc(-c2ccnc(Nc3cccc(O)c3)n2)cc1 [Compound 76, 3-[4-(4-Methoxy-phenyl)-pyrimidin-2-ylamino]-phenol]				
830	10	70		590	1500	720	690	CN(C)Cc1cccc(-c2ccnc(Nc3cccc(O)c3)n2)c1 [Compound 80, 3-[4-(3-Dimethylaminomethyl-phenyl)-pyrimidin-2-ylamino]-phenol]	1600	2200 ± 1600	860	4000
1300	20	110		500	1000	1400	1300	CN(C)Cc1cccc(-c2ccnc(Nc3ccc(O)cc3)n2)c1 [Compound 81, 4-[4-(3-Dimethylaminomethyl-phenyl)-pyrimidin-2-ylamino]-phenol]	1200	2600 ± 2100	1500	5000
150	20	190		650	7800	990	380	COc1ccc(Nc2nccc(-c3cccc(CN(C)C)c3)n2)cn1 [Compound 83, [4-(3-Dimethylaminomethyl-phenyl)-pyrimidin-2-yl]-(6-methoxy-pyridin-3-yl)-amine]	910	1300 ± 400	1400	1600
80	5	100	200	1400	20		570	COc1cccc(-c2ccnc(Nc3cccc(O)c3)n2)c1 [Compound 88, 3-[4-(3-Methoxy-phenyl)-pyrimidin-2-ylamino]-phenol]				
80	110		1400		940		2100	N#Cc1cccc(-c2ccnc(Nc3cccc(O)c3)n2)c1 [Compound 92, 3-[2-(3-Hydroxy-phenylamino)-pyrimidin-4-yl]-benzonitrile]				
			2500		1000		3100	N#Cc1cccc(-c2ccnc(Nc3ccc(O)cc3)n2)c1 [Compound 93, 3-[2-(4-Hydroxy-phenylamino)-pyrimidin-4-yl]-benzonitrile]				
350	6	130	590	1400	640		1100	COc1cccc(-c2ccnc(Nc3ccc(O)cc3)n2)c1 [Compound 98, 4-[4-(3-Methoxy-phenyl)-pyrimidin-2-ylamino]-phenol]				
	20	120	1300	80	400	1500	500	COc1ccc(-c2ccnc(Nc3ccc(O)cc3)n2)cc1 [Compound 110, 4-[4-(4-Methoxy-phenyl)-pyrimidin-2-ylamino]-phenol]				

From patent US20070021419A1, “2-Aminophenyl-4-phenylpyrimidines as kinase inhibitors” (Cyclacel Limited, priority 2003, published 2007)
